Results: patent US20240376084A1, “INHIBITORS OF ALPHA-HEMOLYSIN OF STAPHYLOCOCCUS AUREUS” (Helmholtz-Zentrum Fur Infektionsforschung GmbH, priority 2021, published 2024)

Tests used:
[1] = target: hemolysin alpha from Staphylococcus aureus (Staphylococcus aureus, UniProt P09616); experiment: cell-based
[2] = target: S. aureus Alpha hemolysin (Staphylococcus aureus, UniProt P09616); experiment: cell-based
Sequence of S. aureus Alpha hemolysin (P09616 27-319 limits assumed): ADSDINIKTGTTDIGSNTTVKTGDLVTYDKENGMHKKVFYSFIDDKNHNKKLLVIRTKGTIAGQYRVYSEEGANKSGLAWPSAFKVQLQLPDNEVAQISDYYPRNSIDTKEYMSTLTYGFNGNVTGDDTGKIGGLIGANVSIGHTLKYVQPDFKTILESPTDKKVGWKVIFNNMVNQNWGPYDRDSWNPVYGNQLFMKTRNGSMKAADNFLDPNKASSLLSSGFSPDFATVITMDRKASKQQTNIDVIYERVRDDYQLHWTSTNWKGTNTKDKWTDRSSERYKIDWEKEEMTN

Sequence of hemolysin alpha from Staphylococcus aureus (P09616 27-319 limits assumed): as above

Compound | EC50 [1] | EC50 ([2]; A549-LDH Assay activity) | IC50 [1] | EC50 ([2]; LDH Assay EC50)
Cc1cc2[nH]c(=O)c(=O)[nH]c2cc1S(=O)(=O)Nc1ccc2c(c1)B(O)OC2 [Compound 388, N-(1-hydroxy-3H-2,1-benzoxaborol-6-yl)-7-methyl-2,3-dioxo-1,4-dihydroquinoxaline-6-sulfonamide] | 100 to 1000 nM | 1000 to 6000 nM |  | 
Cc1cc2[nH]c(=O)c(=O)[nH]c2cc1S(=O)(=O)Nc1ccc(-c2ccccc2)cc1 [Compound 61, N-([1,1′-biphenyl]-4-yl)-7-methyl-2,3-dioxo-1,2,3,4-tetrahydroquinoxaline-6-sulfonamide] |  | 30 to 100 nM | < 30 nM | 
Cc1cc2[nH]c(=O)c(=O)[nH]c2cc1S(=O)(=O)Nc1ccc(-c2cccc(S(=O)(=O)N(C)C)c2)c(Cl)c1 [Compound 335, N-[3-chloro-4-[3-(dimethylsulfamoyl)phenyl]phenyl]-7-methyl-2,3-dioxo-1,4-dihydroquinoxaline-6-sulfonamide] | 100 to 1000 nM | 1000 to 6000 nM |  | 
Cc1cc2[nH]c(=O)c(=O)[nH]c2cc1S(=O)(=O)Nc1ccc(-c2ccc(=O)[nH]c2)c(Cl)c1 [Compound 358, N-[3-chloro-4-(6-oxo-1H-pyridin-3-yl)phenyl]-7-methyl-2,3-dioxo-1,4-dihydroquinoxaline-6-sulfonamide] | 100 to 1000 nM | 30 to 100 nM |  | 
Cc1cc2[nH]c(=O)c(=O)[nH]c2cc1S(=O)(=O)Nc1ccc(-c2ccc3c(C)c[nH]c3c2)c(Cl)c1 [Compound 352, N-[3-chloro-4-(3-methyl-1H-indol-6-yl)phenyl]-7-methyl-2,3-dioxo-1,4-dihydroquinoxaline-6-sulfonamide] | 100 to 1000 nM | 100 to 1000 nM |  | 
O=c1[nH]c2cc(F)c(S(=O)(=O)Nc3ccc(-c4ccc5c(c4)NCC5)c(Cl)c3)cc2[nH]c1=O [Compound 10, N-(3-chloro-4-(indolin-6-yl)phenyl)-7-fluoro-2,3-dioxo-1,2,3,4-tetrahydroquinoxaline-6-sulfonamide] |  | 100 to 1000 nM | < 30 nM | 
Cc1cc2[nH]c(=O)c(=O)[nH]c2cc1S(=O)(=O)Nc1cnc(-c2ccc(C#N)cc2)c(Cl)c1 [Compound 305, N-[5-chloro-6-(4-cyanophenyl)-3-pyridyl]-7-methyl-2,3-dioxo-1,4-dihydroquinoxaline-6-sulfonamide] | 100 to 1000 nM | 30 to 100 nM |  | 
O=c1[nH]c2cc(F)c(S(=O)(=O)Nc3ccc(-c4cccc(Cl)c4)c(Cl)c3)cc2[nH]c1=O [Compound 65, N-(2,3′-dichloro-[1,1′-biphenyl]-4-yl)-7-fluoro-2,3-dioxo-1,2,3,4-tetrahydroquinoxaline-6-sulfonamide] |  | 1000 to 6000 nM | 30 to 100 nM | 
Cc1nc2cc(-c3ncc(NS(=O)(=O)c4cc5[nH]c(=O)c(=O)[nH]c5cc4C)cc3Cl)ccc2o1 [Compound 375, N-[5-chloro-6-(2-methyl-1,3-benzoxazol-5-yl)-3-pyridyl]-7-methyl-2,3-dioxo-1,4-dihydroquinoxaline-6-sulfonamide] | 30 to 100 nM | 30 to 100 nM |  | 
COc1ccc(-c2ccc(NS(=O)(=O)c3cc4[nH]c(=O)c(=O)[nH]c4cc3C)cc2C(F)(F)F)cc1F [Compound 345, N-[4-(3-fluoro-4-methoxy-phenyl)-3-(trifluoromethyl)phenyl]-7-methyl-2,3-dioxo-1,4-dihydroquinoxaline-6-sulfonamide] | < 30 nM | < 30 nM |  | 
Cc1cc2[nH]c(=O)c(=O)[nH]c2cc1S(=O)(=O)Nc1ccc(-c2cccc(N3CCC3)c2)c(Cl)c1 [Compound 206, N-(3′-(azetidin-1-yl)-2-chloro-[1,1′-biphenyl]-4-yl)-7-methyl-2,3-dioxo-1,2,3,4-tetrahydroquinoxaline-6-sulfonamide] | < 30 nM | 30 to 100 nM |  | 
Cc1cc2[nH]c(=O)c(=O)[nH]c2cc1S(=O)(=O)Nc1ccc(-c2ccc3c(c2)NC(=O)CO3)c(C(F)(F)F)c1 [Compound 367, 7-methyl-2,3-dioxo-N-[4-(3-oxo-4H-1,4-benzoxazin-6-yl)-3-(trifluoromethyl)phenyl]-1,4-dihydroquinoxaline-6-sulfonamide] | < 30 nM | 30 to 100 nM |  | 
COc1cc2[nH]c(=O)c(=O)[nH]c2cc1S(=O)(=O)Nc1ccc(Br)cc1 [Compound 383, N-(4-bromophenyl)-7-methoxy-2,3-dioxo-1,4-dihydroquinoxaline-6-sulfonamide] | 1000 to 3500 nM | 100 to 1000 nM |  | 
CCOc1ccc(-c2ccc(NS(=O)(=O)c3cc4[nH]c(=O)c(=O)[nH]c4cc3C)cc2Cl)cc1 [Compound 319, N-[3-chloro-4-(4-ethoxyphenyl)phenyl]-7-methyl-2,3-dioxo-1,4-dihydroquinoxaline-6-sulfonamide] | 30 to 100 nM | 100 to 1000 nM |  | 
Cc1cc(NS(=O)(=O)c2cc3[nH]c(=O)c(=O)[nH]c3cc2F)cc(C)c1-c1ccccc1 [Compound 74, N-(2,6-dimethyl-[1,1′-biphenyl]-4-yl)-7-fluoro-2,3-dioxo-1,2,3,4-tetrahydroquinoxaline-6-sulfonamide] |  | 100 to 1000 nM | 100 to 1000 nM | 
Cc1cc2[nH]c(=O)c(=O)[nH]c2cc1S(=O)(=O)Nc1ccc(-c2ccccc2F)c(Cl)c1 [Compound 5, N-(2-chloro-2′-fluoro-[1,1′-biphenyl]-4-yl)-7-methyl-2,3-dioxo-1,2,3,4-tetrahydroquinoxaline-6-sulfonamide] |  | 30 to 100 nM | < 30 nM | 
Cc1cc2[nH]c(=O)c(=O)[nH]c2cc1S(=O)(=O)Nc1ccc(-c2ccc(F)cc2)c(C#N)c1 [Compound 377, N-[3-cyano-4-(4-fluorophenyl)phenyl]-7-methyl-2,3-dioxo-1,4-dihydroquinoxaline-6-sulfonamide] | 100 to 1000 nM | 100 to 1000 nM |  | 
Cc1cc2[nH]c(=O)c(=O)[nH]c2cc1S(=O)(=O)Nc1ccc(-c2cccnc2)c(Cl)c1 [Compound 29, N-(3-chloro-4-(pyridin-3-yl)phenyl)-7-methyl-2,3-dioxo-1,2,3,4-tetrahydroquinoxaline-6-sulfonamide] |  | 100 to 1000 nM | < 30 nM | 
Cc1cc(NS(=O)(=O)c2ccc3[nH]c(=O)c(=O)[nH]c3c2)ccc1Br [drawing 471 (R^2 = H), reference compound] | 1690 nM |  |  | 346 nM
Cc1cc(NS(=O)(=O)c2cc3[nH]c(=O)c(=O)[nH]c3cc2C)ccc1C(C)C [Compound 117, N-(4-isopropyl-3-methylphenyl)-7-methyl-2,3-dioxo-1,2,3,4-tetrahydroquinoxaline-6-sulfonamide] |  | 100 to 1000 nM | 100 to 1000 nM | 
Cc1cc2[nH]c(=O)c(=O)[nH]c2cc1S(=O)(=O)Nc1ccc(-c2ccc3c(c2)CCN3C)c(Cl)c1 [Compound 341, N-[3-chloro-4-(1-methylindolin-5-yl)phenyl]-7-methyl-2,3-dioxo-1,4-dihydroquinoxaline-6-sulfonamide] | 100 to 1000 nM | 1000 to 6000 nM |  | 
O=c1[nH]c2ccc(S(=O)(=O)Nc3ccc(OC(F)(F)F)cc3)cc2[nH]c1=O [drawing 469 (R^2 = H), reference compound] | 290 nM |  |  | 241 nM
Cc1cc2[nH]c(=O)c(=O)[nH]c2cc1S(=O)(=O)Nc1ccc(-c2ccc3c(c2)NCCO3)c(Cl)c1 [Compound 353, N-[3-chloro-4-(3,4-dihydro-2H-1,4-benzoxazin-6-yl)phenyl]-7-methyl-2,3-dioxo-1,4-dihydroquinoxaline-6-sulfonamide] | 30 to 100 nM | 100 to 1000 nM |  | 
Cc1cc2[nH]c(=O)c(=O)[nH]c2cc1S(=O)(=O)Nc1ccc(OC(F)(F)F)cc1 [drawing 469 (R^2 = CH3)] | 37 nM |  |  | 14 nM
O=c1[nH]c2cc(Cl)c(S(=O)(=O)Nc3ccc(-c4ccncc4)c(Cl)c3)cc2[nH]c1=O [Compound 94, 7-chloro-N-(3-chloro-4-(pyridin-4-yl)phenyl)-2,3-dioxo-1,2,3,4-tetrahydroquinoxaline-6-sulfonamide] |  | 100 to 1000 nM | 100 to 1000 nM | 
Cc1cc2[nH]c(=O)c(=O)[nH]c2cc1S(=O)(=O)Nc1ccc(-c2ccc(S(C)(=O)=O)cc2)c(Cl)c1 [Compound 398, N-[3-chloro-4-(4-methylsulfonylphenyl)phenyl]-7-methyl-2,3-dioxo-1,4-dihydroquinoxaline-6-sulfonamide] | 1000 to 3500 nM | 1000 to 6000 nM |  | 
O=c1[nH]c2cc(C3CC3)c(S(=O)(=O)Nc3cnc(-c4ccc(F)cc4)c(Cl)c3)cc2[nH]c1=O [Compound 379, N-[5-chloro-6-(4-fluorophenyl)-3-pyridyl]-7-cyclopropyl-2,3-dioxo-1,4-dihydroquinoxaline-6-sulfonamide] | 100 to 1000 nM | 100 to 1000 nM |  | 
O=c1[nH]c2cc(F)c(S(=O)(=O)Nc3ccc(-c4ccccc4F)c(Cl)c3)cc2[nH]c1=O [Compound 36, N-(2-chloro-2′-fluoro-[1,1′-biphenyl]-4-yl)-7-fluoro-2,3-dioxo-1,2,3,4-tetrahydroquinoxaline-6-sulfonamide] |  | 100 to 1000 nM | < 30 nM | 
